How the values were obtained:
[1] = test system: aspirin-induced gastric ulcers in pylorus-ligated rats; assay: Effect on aspirin-induced gastric ulcers in pylorus-ligated rats; type: in vivo; details: for Inhibition (aspirin-induced gastric ulcers): 10 rats; for Inhibition (aspirin-induced gastric ulcers) / ED50: 7 hrs after aspirin 100 mg/kg p.o.; for Safety Margin LD50/ED50 (aspirin-induced ulcers): LD50 mice p.o. / ED50 pylorus-ligated rats i.d., Table 2; for ED50: Rattus norvegicus, i.d., pylorus-ligated rats
Description: (§1) As illustrative evidence of the remarkable high gastric antisecretory activity of the compounds of the invention, tests were conducted on, and comparisons made with, closely similar compounds in the prior art. The following Tables 2 and 3 show the results of such tests according to previously identified techniques from the literature.
Effect on aspirin-induced gastric ulcers in pylorus-ligated
Each drug was given […] intraduodenally (i.d.) immediately after pyloru
ligation in a volume of 0.5 ml/100 g of body weight. Animals were
sacrificed 7 hrs after aspirin (100 mg/kg, p.o.) administration.

Shay ulceration in rats = assay: Effect on Shay ulceration in rats; type: in vivo; details: for Inhibition (Shay ulceration): 10 rats; for Inhibition (Shay ulceration) / ED50: 13 hours after drug treatment; for Safety Margin LD50/ED50 (Shay ulceration): LD50 mice p.o. / ED50 Shay rats i.d., Table 3; for ED50: Rattus norvegicus, i.d., rats
Description: as §1
(§2) Effect on Shay ulceration in rats and acute toxicity in mice.
Each drug was given either intraduodenally (i.d.) immediately after
pylorus ligation in a volume of 0.5 ml/100 g of body weight. The animals
were sacrificed 13 hours after drug treatment.

Acute toxicity in mice = details: mouse, in vivo, po, Table 2, read-out: LD50 (Table 2, head printed "50 (mg/kg) P.O. Orally")
Description: as §1
rats and acute toxicity in mice.
as §2

SMILES: NC(=S)C(c1ccccc1)c1cccnn1 (stereo not drawn) [Ex. 1, 2-Phenyl-2-(3-pyridazinyl)thioacetamide]
- Inhibition (aspirin-induced gastric ulcers) ([1]; 10 mg/kg i.d.): 48.6%
- Inhibition (aspirin-induced gastric ulcers) ([1]; 30 mg/kg i.d.): 97.7%
- Safety Margin LD50/ED50 (aspirin-induced ulcers) [1]: 85.12
- ED50 [1]: 11.5 mg/kg
- Inhibition (Shay ulceration) (Shay ulceration in rats; 10 mg/kg i.d.): 33.3%
- Inhibition (Shay ulceration) (Shay ulceration in rats; 30 mg/kg i.d.): 95.8%
- Safety Margin LD50/ED50 (Shay ulceration) (Shay ulceration in rats): 78.40
- ED50 (Shay ulceration in rats): 12.5 mg/kg
- LD50 (Acute toxicity in mice): 980 mg/kg

SMILES: Cc1ccc(C(C(N)=S)c2ccccc2)nn1 (stereo not drawn) [Ex. 2, 2-Phenyl-(6-methyl-3-pyridazinyl)thioacetomide]
- Inhibition (aspirin-induced gastric ulcers) ([1]; 10 mg/kg i.d.): 3.2%
- Inhibition (aspirin-induced gastric ulcers) ([1]; 30 mg/kg i.d.): 89.0%
- Safety Margin LD50/ED50 (aspirin-induced ulcers) [1]: 80.95
- ED50 [1]: 21 mg/kg
- Inhibition (Shay ulceration) (Shay ulceration in rats; 10 mg/kg i.d.): 50.0%
- Inhibition (Shay ulceration) (Shay ulceration in rats; 30 mg/kg i.d.): 91.7%
- Safety Margin LD50/ED50 (Shay ulceration) (Shay ulceration in rats): 154.54
- ED50 (Shay ulceration in rats): 11 mg/kg
- LD50 (Acute toxicity in mice): 1700 mg/kg

SMILES: NC(=S)C(c1ccccc1)c1ncccn1 (stereo not drawn) [U.S. Pat. No. 3,624,085 Ex. 9]
- Inhibition (aspirin-induced gastric ulcers) ([1]; 10 mg/kg i.d.): 22.3%
- Inhibition (aspirin-induced gastric ulcers) ([1]; 30 mg/kg i.d.): 74.0%
- Safety Margin LD50/ED50 (aspirin-induced ulcers) [1]: 64.86
- ED50 [1]: 18.5 mg/kg
- Inhibition (Shay ulceration) (Shay ulceration in rats; 10 mg/kg i.d.): 28.2%
- Inhibition (Shay ulceration) (Shay ulceration in rats; 30 mg/kg i.d.): 65.0%
- Safety Margin LD50/ED50 (Shay ulceration) (Shay ulceration in rats): 46.15
- ED50 (Shay ulceration in rats): 26 mg/kg
- LD50 (Acute toxicity in mice): 1200 mg/kg

SMILES: NC(=S)C(c1ccccc1)c1cnccn1 (stereo not drawn) [U.S. Pat. No. 3,624,085 Ex. 12]
- Inhibition (aspirin-induced gastric ulcers) ([1]; 10 mg/kg i.d.): 15.4%
- Inhibition (aspirin-induced gastric ulcers) ([1]; 30 mg/kg i.d.): 50.8%
- Safety Margin LD50/ED50 (aspirin-induced ulcers) [1]: 30.80
- ED50 [1]: 30 mg/kg
- Inhibition (Shay ulceration) (Shay ulceration in rats; 10 mg/kg i.d.): 18.3%
- Inhibition (Shay ulceration) (Shay ulceration in rats; 30 mg/kg i.d.): 57.7%
- Safety Margin LD50/ED50 (Shay ulceration) (Shay ulceration in rats): 33.00
- ED50 (Shay ulceration in rats): 28 mg/kg
- LD50 (Acute toxicity in mice): 924 mg/kg

SMILES: CCC(C(N)=S)c1ccccn1 (stereo not drawn) [U.S. Pat. No. 3,686,190 Ex. 1]
- Inhibition (aspirin-induced gastric ulcers) ([1]; 10 mg/kg i.d.): 11.3%
- Inhibition (aspirin-induced gastric ulcers) ([1]; 30 mg/kg i.d.): 45.7%
- Safety Margin LD50/ED50 (aspirin-induced ulcers) [1]: 12.88
- ED50 [1]: 52 mg/kg
- Inhibition (Shay ulceration) (Shay ulceration in rats; 10 mg/kg i.d.): 12.0%
- Inhibition (Shay ulceration) (Shay ulceration in rats; 30 mg/kg i.d.): 46.5%
- Safety Margin LD50/ED50 (Shay ulceration) (Shay ulceration in rats): 17.70
- ED50 (Shay ulceration in rats): 34 mg/kg
- LD50 (Acute toxicity in mice): 670 mg/kg

Source: US4242512A, “Novel thioamide derivatives containing a pyridazine group” (Morishita Pharmaceutical Co., Ltd., priority 1979, dated 1980)
